Measured values reported in patent US9365588B2, “Benzoxazines as modulators of ion channels” (Vertex Pharmaceuticals Incorporated, priority 2011, dated 2016).
pIC50: −log10 of the molar value.

Target: human NaV 1.7 (Homo sapiens, UniProt Q15858)
Assay: E-VIPR optical membrane potential assay with electrical stimulation
Format: cell-based
Details: sodium channel inhibition; read-out: Binned Activity Data (IC50)
Method in brief: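 Membrane-potential read-out: background-subtracted 460 nm/580 nm ratio during a 9 s current-controlled stimulus, 400 Hz scan. Before stimulation, NaV1.7-HEK cells carried coumarin/oxonol dye and compound (final DMSO 0.625%) for 20–35 min at room temperature; tetracaine 125 μM served as positive control.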

human NaV 1.7, sequence (Q15858 whole entry): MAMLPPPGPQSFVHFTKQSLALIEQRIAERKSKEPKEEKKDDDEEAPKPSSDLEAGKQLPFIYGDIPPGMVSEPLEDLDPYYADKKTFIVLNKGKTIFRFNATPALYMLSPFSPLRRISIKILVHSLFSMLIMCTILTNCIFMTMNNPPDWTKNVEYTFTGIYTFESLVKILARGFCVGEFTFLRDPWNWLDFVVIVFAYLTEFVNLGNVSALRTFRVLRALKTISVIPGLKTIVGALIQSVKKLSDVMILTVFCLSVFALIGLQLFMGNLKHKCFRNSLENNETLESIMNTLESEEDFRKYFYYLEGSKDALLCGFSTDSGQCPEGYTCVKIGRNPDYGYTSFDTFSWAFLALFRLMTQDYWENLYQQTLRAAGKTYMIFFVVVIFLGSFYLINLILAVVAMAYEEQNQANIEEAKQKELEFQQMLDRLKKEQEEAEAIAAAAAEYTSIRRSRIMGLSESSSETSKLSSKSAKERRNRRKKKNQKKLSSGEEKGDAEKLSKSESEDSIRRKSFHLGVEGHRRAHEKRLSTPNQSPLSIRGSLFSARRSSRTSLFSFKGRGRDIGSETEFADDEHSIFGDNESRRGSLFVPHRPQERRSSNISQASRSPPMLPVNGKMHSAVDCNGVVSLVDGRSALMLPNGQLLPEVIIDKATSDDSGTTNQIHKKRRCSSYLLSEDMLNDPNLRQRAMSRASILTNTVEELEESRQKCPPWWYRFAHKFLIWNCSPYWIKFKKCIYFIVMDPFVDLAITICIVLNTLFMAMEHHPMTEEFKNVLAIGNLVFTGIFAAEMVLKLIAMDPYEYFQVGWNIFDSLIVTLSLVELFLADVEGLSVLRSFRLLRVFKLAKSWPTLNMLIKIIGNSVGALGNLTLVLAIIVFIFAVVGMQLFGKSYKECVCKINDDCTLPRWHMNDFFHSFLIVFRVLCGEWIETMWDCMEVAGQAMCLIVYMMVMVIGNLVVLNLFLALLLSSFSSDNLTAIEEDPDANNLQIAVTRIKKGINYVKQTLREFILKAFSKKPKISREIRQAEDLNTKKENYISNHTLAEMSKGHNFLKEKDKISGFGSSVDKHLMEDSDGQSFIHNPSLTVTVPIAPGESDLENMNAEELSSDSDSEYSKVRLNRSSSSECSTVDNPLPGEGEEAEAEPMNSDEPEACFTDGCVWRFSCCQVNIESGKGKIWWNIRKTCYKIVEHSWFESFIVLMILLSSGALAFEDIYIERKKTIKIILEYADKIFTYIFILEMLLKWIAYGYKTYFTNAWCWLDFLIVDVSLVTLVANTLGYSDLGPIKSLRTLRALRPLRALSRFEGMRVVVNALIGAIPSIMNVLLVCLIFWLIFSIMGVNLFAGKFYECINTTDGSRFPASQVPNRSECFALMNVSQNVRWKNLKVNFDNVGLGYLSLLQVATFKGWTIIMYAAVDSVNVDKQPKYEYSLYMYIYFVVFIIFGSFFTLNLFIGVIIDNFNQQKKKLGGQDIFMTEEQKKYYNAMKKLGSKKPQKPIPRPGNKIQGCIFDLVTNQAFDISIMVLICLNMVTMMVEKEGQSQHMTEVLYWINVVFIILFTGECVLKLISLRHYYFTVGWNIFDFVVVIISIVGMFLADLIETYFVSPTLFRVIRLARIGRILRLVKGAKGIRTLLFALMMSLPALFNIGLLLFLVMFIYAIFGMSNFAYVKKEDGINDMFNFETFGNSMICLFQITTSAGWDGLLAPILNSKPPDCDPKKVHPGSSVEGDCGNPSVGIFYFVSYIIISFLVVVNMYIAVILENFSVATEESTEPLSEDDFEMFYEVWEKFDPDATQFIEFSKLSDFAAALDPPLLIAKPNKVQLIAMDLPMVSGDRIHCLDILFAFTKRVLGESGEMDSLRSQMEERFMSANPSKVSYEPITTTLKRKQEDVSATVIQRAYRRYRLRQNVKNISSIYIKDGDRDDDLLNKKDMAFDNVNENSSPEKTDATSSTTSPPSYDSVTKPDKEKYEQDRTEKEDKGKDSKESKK

pIC50	SMILES
≥ 5.70	O=C(c1ccc(O)c(Cl)c1)N1CCC2(CC1)Oc1ccccc1-n1c(C(F)(F)F)ccc12 [Compound 878]
≥ 5.70	CC(C)(C)Sc1ccc(C(=O)N2CCC3(CC2)Oc2ccccc2-n2c(C(F)(F)F)ccc23)cc1 [Compound 879]
5.30 to 5.70	CC(C)(C)[S@@+]([O-])c1ccc(C(=O)N2CCC3(CC2)Oc2ccccc2-n2c(C(F)(F)F)ccc23)cc1 [Compound 880]
≥ 5.70	CC(C)S(=O)(=O)c1ccc(C(=O)N2CCC3(CC2)Oc2ccccc2-n2c(C(F)(F)F)ccc23)nc1 [Compound 881]
5.30 to 5.70	CC(C)(C)[S+]([O-])c1ccc(C(=O)N2CCC3(CC2)Oc2ccccc2-n2c(C(F)(F)F)ccc23)cc1 (stereo not shown) [Compound 882]
5.30 to 5.70	CC(C)(C)[S@+]([O-])c1ccc(C(=O)N2CCC3(CC2)Oc2ccccc2-n2c(C(F)(F)F)ccc23)cc1 [Compound 883]
≥ 5.70	COc1ccc(C(=O)N2CCC3(CC2)Oc2ccccc2-n2c(C(F)(F)F)ccc23)cc1C [Compound 884]
≥ 5.70	O=C(c1ccccc1OC(F)F)N1CCC2(CC1)Oc1ccccc1-c1c2cnn1C(F)F [Compound 889]
≥ 5.70	COc1ccc(C(=O)N2CCC3(CC2)Oc2ccccc2-c2c3cnn2C(F)(F)F)cc1OC [Compound 890]
≥ 5.70	O=C(c1ccc(OS(=O)(=O)C(F)(F)F)cc1)N1CCC2(CC1)Oc1ccccc1-n1c(C(F)(F)F)ccc12 [Compound 891]
